One experiment deals with CoA-IT. In words: Microsomal CoA-IT activity assay (U937 cell microsomes). The class given is biochemical. To be noted: increased uM or longer pretreatment time.
The test system of experiment [1] is phorbol ester-induced inflammation in mouse ear. In words: TPA-induced mouse ear inflammation (ear edema and MPO). The experiment is classed as in vivo. To be noted: topical, Balb/c mice. Here is the method: Male Balb/c inbred mice were obtained from Charle River Breeding Laboratories (Kingston, N.Y.). Within a single experiment mice (22-25 g) were age-matched. These in vivo experiments typically involved use of 5-6 animals/group.
TPA (12-O-tetradecanoylphorbol 13-acetate) (Sigma Chemical Company) in acetone ([…]) was applied to the inner and outer surfaces of the left ear of BALB/c male mice. The thickness of both ears was then measured with a dial micrometer (Mitutoyo, Japan) at both 2 and 4 hours after treatment, and the data expressed as the change in thickness (10^-3 cm) between treated and untreated ears. […] After measuring the edema, the inflammed left ears were removed and stored at -70° C. until they were assayed for MPO (myeloperoxidase) activity where appropriate.
On the day of the assay, partially thawed ear tissues were minced and then homogenized (10% w/v) with a Tissumnizer homogenizer (Tekmar Co.) in 50 mM phosphate buffer (pH 6) containing 0.5% HTAB. […] Supernatant MPO activity was quantified kinetically (change in absorbance measured over 3 min, sampled at 15-sec intervals) using a Beckman DU-7 spectrophotometer and a Kinetics Analysis package (Beckman Instruments, Inc.). […]
Balb/c mice were given PMA followed by the test compound. The edematous response was measured using a thickness gauge 4 hrs post PMA application. […]

Source text for CoA-IT: The following is a method to measure CoA-IT activity and the effects of compounds on CoA-IT activity. The assay is based upon mixing cellular material containing CoA-IT activity with a stable lyso phospholipid such as 1-alkyl-2-acyl-GPC and measuring the production of phospholipid product such as 1-alkyl-2-acyl-GPC occurring in the absence of added CoA or CoA-fatty acids.
Any inflammatory cell that contains high levels of COA-IT activity can be used, such as neutrophils, macrophages or cell lines such as U937 cells. U937 cells were obtained from American Type Culture Collection and grown in RPMI- 1640 media (Gibco, Grand Island, N.Y.) supplemented with 10% fetal bovine serum (Hyclone, Logan, Utah) at 37° C., 5% CO2. Cells were grown without differentiation (basal state) by any agent, such as dimethyl sulfoxide.
Microsomes were prepared using standard techniques. […]
CoA-lT activity was measured in 1.5 ml centrifuge tubes in a total volume of 100 ul. […] An aliquot of the chloroform-extracted materials were separated, usually by TLC in chloroform/methanol/acetic acid/water (50:25:8:4, v/v), visualized by radioscanning (Bioscan) and the product, [^3 H]1-alkyl-2-acyl-GPC, was scraped and quantified by liquid scintillation spectroscopy. […]
Protein concentration were assessed using the protein assay reagents from Bio-Rad (Richmond, Calif.).

Turning to `COC(=O)CCCO[C@@H]1NC(=O)[C@H]1NC(c1ccccc1)(c1ccccc1)c1ccccc1` [Example 17, (3S,4S)-4-[3-(Methoxycarbonyl)propoxy]-3-(triphenylmethylamino)azetidin-2-one], in the experiment on CoA-IT, the “activity in CoA-IT assay at increased concentration or longer pretreatment” value is “active at either increased uM or longer pretreatment time”.
Regarding `C[C@@H]1C[C@H]2[C@@H]3CCC4=CC(=O)C=C[C@]4(C)[C@@]3(F)[C@@H](O)C[C@]2(C)[C@@]1(O)C(=O)CO` [dexamethasone, reference compound], the “Edema @ 4 hr ED50” value in experiment [1] (4 hrs post PMA application) was 0.06 mg/ear. In addition, in experiment [1] (inflamed ears harvested after the 4 hr edema measurement), the “MPO response ED50” value is on record as 0.03 mg/ear.

The record behind these values is patent US6221860A, “Beta-lactam inhibitors of CoA-IT” (SmithKline Beecham Corporation, priority 1999, dated 2001).
